Assay results reported in patent US7652044B2, “P-38 inhibitors” (Novartis A.G., priority 2003, dated 2010).

biological target: T1, p38α kinase (Homo sapiens, UniProt Q16539); experiment: p38α assay (enzyme inhibition); format: biochemical
T1 construct: purchased Upstate
Procedure: Compound inhibitory activity was measured in a radioactive enzyme assay. The buffer composition was adopted from Lisnock et al (Biochemistry, 1998, vol. 37, pp 16573-16581). Peptide substrate was selected from Chen et al (Biochemistry, 2000, vol. 39, 2079-2087). The concentrations of p38α, [γ-^33P-ATP] and peptide were equal 1 nM, 85 uM and 250 uM, respectively. Incorporation of ^33P into peptide was measured using absorption on filtermats with subsequent wash with 100 mM phosphoric acid followed by ethanol.
cDNAs of human p38α and β were cloned by PCR. The α and β cDNAs were subcloned into DEST2 plasmid (Gateway, InVitrogen). His6-p38 fusion protein was expressed in E. coli and purified from bacterial lysates by affinity chromatography using Ni^+2-NTA-agarose. His6-p38 protein was activated by incubating with constitutively active MKK6. Active p38 was separated from MKK6 by affinity chromatography. Constitutively active MKK6 was generated in a manner similar to Raingeaud et al. (Mol. Cell. Biol., 1247-1255 (1996)).
The p38α assay employed is based on measurement of ADP released in the reaction of interest through NADH oxidation obtained by coupling with pyruvate kinase and lactate dehydrogenase reactions. The assays were performed in 384-well UV-plates. The final volume was 25 uL prepared from the addition of 2.5 uL compound dissolved in 10% DMSO, 17.5 uL of assay buffer and 5 uL of ATP. Assay buffer contains the following reagents to give final concentration in the assay: 25 mM HEPES, 20 mM 2-glycerophosphate, pH 7.6, 10 mM MgCl2, 0.1 mM sodium orthovanadate, 0.5 mM phosphoenolpyruvate, 0.12 mM NADH, 3.1 mg/ml LDH, 6.67 mg/ml pyruvate kinase, 0.25 mM peptide substrate, 2 mM DTT, 0.005% Tween 80 and 20 nM p38α kinase from Upstate. Test compounds are preincubated with p38α kinase for 60 min and the reaction started by addition of ATP to 0.15 mM final concentration. Reaction rates were measured at 340 nm using SpectraMax plate-reading spectrophotometer for 10 min at 37° C. Inhibition data were analyzed by non-linear least-squares regression using SigmaPlot.

T1 sequence (Q16539 whole entry): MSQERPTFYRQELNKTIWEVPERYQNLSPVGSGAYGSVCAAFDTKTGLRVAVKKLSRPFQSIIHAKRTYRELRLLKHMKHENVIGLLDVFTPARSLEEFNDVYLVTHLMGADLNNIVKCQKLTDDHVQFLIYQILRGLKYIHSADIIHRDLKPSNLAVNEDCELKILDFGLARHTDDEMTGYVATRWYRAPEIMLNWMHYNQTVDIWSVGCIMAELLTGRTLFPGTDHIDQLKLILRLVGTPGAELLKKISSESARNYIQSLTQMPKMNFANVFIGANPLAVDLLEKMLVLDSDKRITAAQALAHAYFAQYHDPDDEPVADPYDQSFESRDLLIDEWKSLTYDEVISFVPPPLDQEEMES

| Structure (SMILES) | IC50 |
| --- | --- |
| CONC(=O)c1ccc(C)c(Nc2nnc(-c3ccccc3)[nH]2)c1 [Compound 1, N-methoxy-4-methyl-3-(5-phenyl-4H-[1,2,4]triazol-3-ylamino)-benzamide] | < 50 nM |
| CONC(=O)c1ccc(C)c(Nc2noc(-c3ccccc3)n2)c1 [Compound 2, N-methoxy-4-methyl-3-(5-phenyl-[1,2,4]oxadiazol-3-ylamino)-benzamide] | < 50 nM |
| Cc1ccc(C(=O)NC2CC2)cc1Nc1nc(-c2ccccc2)cs1 [Compound 3, N-Cyclopropyl-4-methyl-3-(4-phenyl-thiazol-2-ylamino)-benzamide] | > 100 nM |
| Cc1ccc(C(=O)NC2CC2)cc1Nc1ncc(C(=O)NCc2ccccc2)s1 [Compound 26, 2-(5-Cyclopropylcarbamoyl-2-methyl-phenylamino)-thiazole-5-carboxylic acid benzylamide] | < 50 nM |
| Cc1cccc(-c2nc(Nc3cc(C(=O)NC4CC4)ccc3C)sc2C(=O)NCc2ccccc2)c1 [Compound 28-6, 2-(5-Cyclopropylcar-bamoyl-2-methyl-phenylamino)-4-m-tolyl-thiazole-5-carboxylic acid benzylamide] | 50 to 100 nM |
| Cc1ccc(C(=O)NC2CC2)cc1Nc1nc(-c2cccc(C#N)c2)c(C(=O)NCc2ccccc2)s1 [Compound 28-9, 4-(3-Cyano-phenyl)-2-(5-cyclopropyl-carbamoyl-2-methyl-phenylamino)thia-zole-5-carboxylic acid benzylamide] | 50 to 100 nM |
| Cc1ccc(C(=O)NC2CC2)cc1Nc1nc(-c2cccc(CN)c2)c(C(=O)NCc2ccccc2)s1 [Compound 28-24, 4-(3-Aminomethyl-phenyl)-2-(5-cyclo-propylcarbamoyl-2-methylphenylamino) thiazole-5-carboxylic acid benzylamide] | < 50 nM |
| Cc1ccc(C(=O)NC2CC2)cc1Nc1nc(-c2ccc3[nH]ccc3c2)c(C(=O)NCc2ccccc2)s1 [Compound 28-40, 2-(5-Cyclopropylcar-bamoyl-2-methyl-phenylamino)-4-(1H-indol-5-yl)-thiazole-5-carboxylic acid benzylamide] | > 100 nM |
